Experiment [1] concerns the target T1, STAT6 (Homo sapiens, UniProt P42226).
T1 construct: These cells express endogenous STAT6; host or cells: HeLa LgBiT clone 4.14
T1 sequence (P42226 1-847): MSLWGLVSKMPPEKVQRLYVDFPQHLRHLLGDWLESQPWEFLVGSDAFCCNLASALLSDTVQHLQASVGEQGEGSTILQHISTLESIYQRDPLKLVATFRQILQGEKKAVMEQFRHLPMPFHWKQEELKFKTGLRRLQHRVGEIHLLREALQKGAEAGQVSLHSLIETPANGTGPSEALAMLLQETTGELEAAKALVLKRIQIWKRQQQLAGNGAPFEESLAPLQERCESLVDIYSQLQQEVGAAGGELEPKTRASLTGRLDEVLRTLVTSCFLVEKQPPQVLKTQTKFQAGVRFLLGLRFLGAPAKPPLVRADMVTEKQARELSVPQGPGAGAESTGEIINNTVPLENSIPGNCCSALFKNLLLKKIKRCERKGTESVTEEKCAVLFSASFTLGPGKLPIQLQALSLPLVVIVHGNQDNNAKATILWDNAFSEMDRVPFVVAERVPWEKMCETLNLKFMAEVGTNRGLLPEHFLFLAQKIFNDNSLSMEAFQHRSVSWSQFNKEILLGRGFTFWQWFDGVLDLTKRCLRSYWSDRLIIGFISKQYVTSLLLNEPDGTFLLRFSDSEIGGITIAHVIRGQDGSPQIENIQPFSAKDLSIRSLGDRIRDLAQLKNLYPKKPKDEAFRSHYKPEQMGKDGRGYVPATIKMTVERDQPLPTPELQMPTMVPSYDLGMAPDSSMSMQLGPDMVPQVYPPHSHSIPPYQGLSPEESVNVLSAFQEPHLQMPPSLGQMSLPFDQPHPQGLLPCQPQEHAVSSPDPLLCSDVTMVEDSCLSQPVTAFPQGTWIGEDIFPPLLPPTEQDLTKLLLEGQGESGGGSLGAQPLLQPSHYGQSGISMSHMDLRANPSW
The experiment is described as follows: Stat6 Degrader Assay (HiBiT based, HeLa LgBiT clone 4.14). The format is cell-based. Conditions: HeLa LgBiT clone 4.14 HiBiT-STAT6, 4-24 h incubation; values given for compounds with >80% Emax; geometric mean; read-out: STAT6 degradation DC50. The method in brief:
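Luminescence from HiBiT-STAT6 complementing stably expressed LgBiT in HeLa clone 4.14 reports remaining STAT6 protein. Cells (5000/well) exposed to compound for 4-24 h at 37° C; read 0.5 h after Nano-Glo addition. 100% degradation window set with 50 μM terfenadine; percent degradation plotted against concentration.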

Experiment [2] concerns Eotaxin-3 release in human whole blood stimulated with IL-4. In words: Human Whole Blood Eotaxin-3 Assay (IL-4 stimulated eotaxin-3 release). The format is cell-based. As to conditions: IL-4 stimulation, 48 h, values given for compounds with >80% Emax, geometric mean. The method in brief: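 Eotaxin-3 (CCL26) release measured by MSD kit in plasma supernatant after 48 h IL-4 stimulation ([…]) of human whole blood. Compounds added in triplicate 4-fold dilutions 2 h before stimulation; 0.5% DMSO final, 37° C, 5% CO2.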

As for `CNc1ccn(-c2ccnc3c2cc([C@H](C)N2CC=C(c4c(C)cc(C(=O)N5CCC(CN6CCN(Cc7ccc8c(c7)C7(CC7)C(=O)N8C7CCC(=O)NC7=O)C[C@@H]6C)CC5)cc4F)CC2)n3C)c(=O)n1` (stereo partly drawn) [Example 3u125, 3-(5′-(((S)-4-((1-(3-fluoro-5-methyl-4-(1-((S)-1-(1-methyl-4-(4-(methylamino)-2-oxopyrimidin-1 (2H)-yl)-1H-pyrrolo[2,3-b]pyridin-2-yl)ethyl)-1,2,3,6-tetrahydropyridin-4-yl)benzoyl)piperidin-4-yl)methyl)-3-methylpiperazin-1-yl)methyl)-2′-oxospiro[cyclopropane-1,3′-indolin]-1′-yl)piperidine-2,6-dione], the DC50 (in general, the concentration giving 50% degradation) in experiment [1] worked out at 0.8 nM. Besides, a half-maximal effect in experiment [2] (EC50) was put at 0.6 nM.
Taken in the same sequence, the figures for `CN(C(=O)c1cc(F)c(C2CCN(Cc3cc4c(-n5cc(F)c6c(c5=O)CCN6)ccnc4n3C)CC2)c(F)c1)c1ccc(C2CCN(Cc3ccc4c(c3)n(C)c(=O)n4C3CCC(=O)NC3=O)CC2)cc1` (stereo not shown) [Example 3u126, N-(4-(1-((1-(2,6-dioxopiperidin-3-yl)-3-methyl-2-oxo-2,3-dihydro-1H-benzo[d]imidazol-5-yl)methyl)piperidin-4-yl)phenyl)-3,5-difluoro-4-(1-((4-(7-fluoro-4-oxo-1,2,3,4-tetrahydro-5H-pyrrolo[3,2-c]pyridin-5-yl)-1-methyl-1H-pyrrolo[2,3-b]pyridin-2-yl)methyl)piperidin-4-yl)-N-methylbenzamide] were 0.4 nM and 0.2 nM.
Taken in the same sequence, the figures for `C[C@H]1CN(Cc2ccc3c(c2)C2(CC2)C(=O)N3[C@@H]2CCC(=O)NC2=O)CCN1CC1CCN(C(=O)c2cc(F)c(C3=CCN([C@@H](C)c4cc5c(-n6cc(F)c7c(c6=O)CCN7)ccnc5n4C)CC3)c(F)c2)CC1` [Example 3u127, (R)-3-(5′-(((S)-4-((1-(3,5-difluoro-4-(1-((S)-1-(4-(7-fluoro-4-oxo-1,2,3,4-tetrahydro-5H-pyrrolo[3,2-c]pyridin-5-yl)-1-methyl-1H-pyrrolo[2,3-b]pyridin-2-yl)ethyl)-1,2,3,6-tetrahydropyridin-4-yl)benzoyl)piperidin-4-yl)methyl)-3-methylpiperazin-1-yl)methyl)-2′-oxospiro[cyclopropane-1,3′-indolin]-1′-yl)piperidine-2,6-dione] were 5.4 nM and 14.8 nM.
Regarding `CNc1cc(=O)n(-c2ccnc3c2cc([C@H](C)N2CC=C(c4c(F)cc(C(=O)N5CCC(CN6CCN(Cc7ccc8c(c7)n(C7CC7)c(=O)n8C7CCC(=O)NC7=O)C[C@@H]6C)CC5)cc4F)CC2)n3C)cc1F` (stereo partly drawn) [Example 3u128, 3-(3-cyclopropyl-5-(((S)-4-((1-(3,5-difluoro-4-(1-((S)-1-(4-(5-fluoro-4-(methylamino)-2-oxopyridin-1 (2H)-yl)-1-methyl-1H-pyrrolo[2,3-b]pyridin-2-yl)ethyl)-1,2,3,6-tetrahydropyridin-4-yl)benzoyl)piperidin-4-yl)methyl)-3-methylpiperazin-1-yl)methyl)-2-oxo-2,3-dihydro-1H-benzo[d]imidazol-1-yl)piperidine-2,6-dione], in experiment [1], the DC50 worked out at 1.1 nM. Further, the EC50 – broadly, the concentration giving half of the maximal effect – in experiment [2] was found to be 1.6 nM.
Taken in the same sequence, the figures for `Cc1cc(C(=O)N2CCC(CN3CCN(Cc4ccc5c(c4)n(C)c(=O)n5C4CCC(=O)NC4=O)C[C@@H]3C)CC2)cc(F)c1C1=CCN([C@@H](C)c2cc3c(-n4ccc5c(c4=O)CCN5)ccnc3n2C)CC1` (stereo partly drawn) [Example 3u137, 3-(5-(((S)-4-((1-(3-fluoro-5-methyl-4-(1-((S)-1-(1-methyl-4-(4-oxo-1,2,3,4-tetrahydro-5H-pyrrolo[3,2-c]pyridin-5-yl)-1H-pyrrolo[2,3-b]pyridin-2-yl)ethyl)-1,2,3,6-tetrahydropyridin-4-yl)benzoyl)piperidin-4-yl)methyl)-3-methylpiperazin-1-yl)methyl)-3-methyl-2-oxo-2,3-dihydro-1H-benzo[d]imidazol-1-yl)piperidine-2,6-dione] were 0.2 nM and 0.4 nM.
